Reference: PMC9848300, “Discovery of novel enasidenib analogues targeting inhibition of mutant isocitrate dehydrogenase 2 as antileukaemic agents” (Journal of Enzyme Inhibition and Medicinal Chemistry, 2023)
Several values for one entry are separate records, joined by “and”; a condition that tells them apart may be missing. Identical values can stand only once.

Legend:
MOLT-4 = experiment: NCI 60 antitumor screening (single dose / five doses); type: cell-based; conditions: Homo sapiens; for inhibition at 10 µM: MOLT-4 (leukaemia), single dose 10 μM, read-out: Growth inhibition percentage (GI %)
T-47D = experiment: as above; type: cell-based; conditions: Homo sapiens, T47D; for inhibition at 10 µM: T-47D (breast cancer), single dose 10 μM, read-out: Growth inhibition percentage (GI %)
ACHN = experiment: as above; type: cell-based; conditions: Homo sapiens; for inhibition at 10 µM: ACHN (renal cancer), single dose 10 μM, read-out: Growth inhibition percentage (GI %)
HCT-15 = experiment: as above; type: cell-based; conditions: Homo sapiens; for inhibition at 10 µM: HCT-15 (colon cancer), single dose 10 μM, read-out: Growth inhibition percentage (GI %)
SF-539 = experiment: as above; type: cell-based; conditions: Homo sapiens; for inhibition at 10 µM: SF-539 (CNS cancer), single dose 10 μM, read-out: Growth inhibition percentage (GI %)
LOX IMVI = experiment: as above; type: cell-based; conditions: Homo sapiens; for inhibition at 10 µM: LOX IMVI (melanoma), single dose 10 μM, read-out: Growth inhibition percentage (GI %)
EKVX = experiment: as above; type: cell-based; conditions: Homo sapiens; for inhibition at 10 µM: EKVX (non-small cell lung cancer), single dose 10 μM, read-out: Growth inhibition percentage (GI %)
SN 12C = experiment: as above; type: cell-based; conditions: Homo sapiens, SN12C; for inhibition at 10 µM: SN 12C (renal cancer), single dose 10 μM, read-out: Growth inhibition percentage (GI %)
COLO 205 = experiment: as above; type: cell-based; conditions: Homo sapiens; for inhibition at 10 µM: COLO 205 (colon cancer), single dose 10 μM, read-out: Growth inhibition percentage (GI %)
SK-MEL-28 = experiment: as above; type: cell-based; conditions: Homo sapiens; for inhibition at 10 µM: SK-MEL-28 (melanoma), single dose 10 μM, read-out: Growth inhibition percentage (GI %)
HL-60(TB) = experiment: as above; type: cell-based; conditions: Homo sapiens; for inhibition at 10 µM: HL-60(TB) (leukaemia), single dose 10 μM, read-out: Growth inhibition percentage (GI %)
SK-MEL-5 = experiment: as above; type: cell-based; conditions: Homo sapiens; for inhibition at 10 µM: SK-MEL-5 (melanoma), single dose 10 μM, read-out: Growth inhibition percentage (GI %)
SK-MEL-2 = experiment: as above; type: cell-based; conditions: Homo sapiens; for inhibition at 10 µM: SK-MEL-2 (melanoma), single dose 10 μM, read-out: Growth inhibition percentage (GI %)
MDA-MB-468 = experiment: as above; type: cell-based; conditions: Homo sapiens; for inhibition at 10 µM: MDA-MB-468 (breast cancer), single dose 10 μM, read-out: Growth inhibition percentage (GI %)
UO-31 = experiment: as above; type: cell-based; conditions: Homo sapiens; for inhibition at 10 µM: UO-31 (renal cancer), single dose 10 μM, read-out: Growth inhibition percentage (GI %)
K-562 = experiment: as above; type: cell-based; conditions: Homo sapiens, K562; for inhibition at 10 µM: K-562 (leukaemia), single dose 10 μM, read-out: Growth inhibition percentage (GI %)
UACC-62 = experiment: as above; type: cell-based; conditions: Homo sapiens; for inhibition at 10 µM: UACC-62 (melanoma), single dose 10 μM, read-out: Growth inhibition percentage (GI %)
SW-620 = experiment: as above; type: cell-based, human; conditions: Homo sapiens; for inhibition at 10 µM: SW-620 (colon cancer), single dose 10 μM, read-out: Growth inhibition percentage (GI %)
SNB-75 = experiment: as above; type: cell-based; conditions: Homo sapiens; for inhibition at 10 µM: SNB-75 (CNS cancer), single dose 10 μM, read-out: Growth inhibition percentage (GI %)
[1] = test system: 60 human subpanel cancer cell lines; experiment: NCI 60 antitumor screening, mean over the panel (single dose); type: cell-based; conditions: mean over 60 cancer cell lines, single dose 10 μM
In short: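 Test compound added at 10 μM to each of 60 human cancer lines from nine tumour types; growth measured per NCI protocol in triplicate; percent growth converted to inhibition (100 − G%).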

SF-295 = experiment: NCI 60 antitumor screening (single dose / five doses); type: cell-based; conditions: Homo sapiens; for inhibition at 10 µM: SF-295 (CNS cancer), single dose 10 μM, read-out: Growth inhibition percentage (GI %)
CCRF-CEM = experiment: as above; type: cell-based; conditions: Homo sapiens; for inhibition at 10 µM: CCRF-CEM (leukaemia), single dose 10 μM, read-out: Growth inhibition percentage (GI %)
HT29 = experiment: as above; type: cell-based, human; conditions: Homo sapiens; for inhibition at 10 µM: HT-29, HT29 (colon cancer), single dose 10 μM, read-out: Growth inhibition percentage (GI %)
HCT-116 = experiment: as above; type: cell-based; conditions: Homo sapiens; for inhibition at 10 µM: HCT-116 (colon cancer), single dose 10 μM, read-out: Growth inhibition percentage (GI %)
IGROV1 = experiment: as above; type: cell-based; conditions: Homo sapiens, IGROV-1; for inhibition at 10 µM: IGROV1 (ovarian cancer), single dose 10 μM, read-out: Growth inhibition percentage (GI %)
A498 = experiment: as above; type: cell-based; conditions: Homo sapiens; for inhibition at 10 µM: A498 (renal cancer), single dose 10 μM, read-out: Growth inhibition percentage (GI %)
NCI/ADR-RES = experiment: as above; type: cell-based; conditions: Homo sapiens; for inhibition at 10 µM: NCI/ADR-RES (ovarian cancer), single dose 10 μM, read-out: Growth inhibition percentage (GI %)
MALME-3M = experiment: as above; type: cell-based; conditions: Homo sapiens; for inhibition at 10 µM: MALME-3M (melanoma), single dose 10 μM, read-out: Growth inhibition percentage (GI %)
MDA-MB-231/ATCC = experiment: as above; type: cell-based; conditions: Homo sapiens; for inhibition at 10 µM: MDA-MB-231/ATCC (breast cancer), single dose 10 μM, read-out: Growth inhibition percentage (GI %)

Clc1cccc(/C=N/Nc2nc(N/N=C/c3cccc(Cl)c3)nc(N3CCOCC3)n2)c1 [compound 6d, 2,4-Bis[(E)-2-[(3-chlorophenyl)methylidene]hydrazin-1-yl]-6-(morpholin-4-yl)-1,3,5-triazine]
inhibition at 10 µM (MOLT-4): 94%
GI50 (MOLT-4; MOLT-4, five doses (0.01–100 μM), read-out: GI50): 1490 nM
inhibition at 10 µM (T-47D): 31.5%
GI50 (T-47D; T-47D, five doses (0.01–100 μM), read-out: GI50): 3540 nM
inhibition at 10 µM (ACHN): 74.2%
GI50 (ACHN; ACHN, five doses (0.01–100 μM), read-out: GI50): 2110 nM
inhibition at 10 µM (HCT-15): 111%
GI50 (HCT-15; HCT-15, five doses (0.01–100 μM), read-out: GI50): 910 nM
inhibition at 10 µM (SF-539): 56.4%
GI50 (SF-539; SF-539, five doses (0.01–100 μM), read-out: GI50): 5390 nM
inhibition at 10 µM (LOX IMVI): 67.4%
GI50 (LOX IMVI; LOX IMVI, five doses (0.01–100 μM), read-out: GI50): 2990 nM
inhibition at 10 µM (EKVX): 27.8%
GI50 (EKVX; EKVX, five doses (0.01–100 μM), read-out: GI50): 4230 nM
inhibition at 10 µM (SN 12C): 40.1%
GI50 (SN 12C; SN 12C, five doses (0.01–100 μM), read-out: GI50): 4990 nM
inhibition at 10 µM (COLO 205): 63.1%
GI50 (COLO 205; COLO 205, five doses (0.01–100 μM), read-out: GI50): 1230 nM
inhibition at 10 µM (SK-MEL-28): 70.2%
GI50 (SK-MEL-28; SK-MEL-28, five doses (0.01–100 μM), read-out: GI50): 2860 nM
inhibition at 10 µM (HL-60(TB)): 110%
GI50 (HL-60(TB); HL-60(TB), five doses (0.01–100 μM), read-out: GI50): 500 nM
inhibition at 10 µM (SK-MEL-5): 55.9%
GI50 (SK-MEL-5; SK-MEL-5, five doses (0.01–100 μM), read-out: GI50): 1720 nM
inhibition at 10 µM (SK-MEL-2): 102%
GI50 (SK-MEL-2; SK-MEL-2, five doses (0.01–100 μM)): 2180 nM
inhibition at 10 µM (MDA-MB-468): 69.2%
GI50 (MDA-MB-468; MDA-MB-468, five doses (0.01–100 μM), read-out: GI50): 1650 nM
inhibition at 10 µM (UO-31): 73.2%
GI50 (UO-31; UO-31, five doses (0.01–100 μM), read-out: GI50): 1610 nM
inhibition at 10 µM (K-562): 88.2%
GI50 (K-562; K-562, five doses (0.01–100 μM), read-out: GI50): 690 nM
inhibition at 10 µM (UACC-62): 8.33%
GI50 (UACC-62; UACC-62, five doses (0.01–100 μM), read-out: GI50): 4540 nM
GI50 (SW-620; SW-620, SW-620, five doses (0.01–100 μM), read-out: GI50): 1780 nM
inhibition at 10 µM (SW-620): 81.9%
inhibition at 10 µM (SNB-75): -2.64%
GI50 (SNB-75; SNB-75, five doses (0.01–100 μM), read-out: GI50): 3330 nM
Mean GI % [1]: 53.70% and 53.69%
inhibition at 10 µM (SF-295): 42.4%
GI50 (SF-295; SF-295, five doses (0.01–100 μM), read-out: GI50): 4130 nM
inhibition at 10 µM (CCRF-CEM): 75.2%
GI50 (CCRF-CEM; CCRF-CEM, five doses (0.01–100 μM), read-out: GI50): 1340 nM
GI50 (HT29; HT-29, HT29, five doses (0.01–100 μM), read-out: GI50): 1340 nM
inhibition at 10 µM (HT29): 91.8%
inhibition at 10 µM (HCT-116): 77.2%
GI50 (HCT-116; HCT-116, five doses (0.01–100 μM), read-out: GI50): 1270 nM
inhibition at 10 µM (IGROV1): 49.4%
GI50 (IGROV1; IGROV1, five doses (0.01–100 μM), read-out: GI50): 4610 nM
inhibition at 10 µM (A498): 95.7%
GI50 (A498; A498, five doses (0.01–100 μM), read-out: GI50): 1670 nM
inhibition at 10 µM (NCI/ADR-RES): 38.2%
GI50 (NCI/ADR-RES; NCI/ADR-RES, five doses (0.01–100 μM), read-out: GI50): 4580 nM
inhibition at 10 µM (MALME-3M): 144%
GI50 (MALME-3M; MALME-3M, five doses (0.01–100 μM), read-out: GI50): 2860 nM
GI50 (MDA-MB-231/ATCC; MDA-MB-231/ ATCC, five doses (0.01–100 μM), read-out: GI50): 9160 nM
inhibition at 10 µM (MDA-MB-231/ATCC): 28.7%

Fc1cccc(/C=N/Nc2nc(N/N=C/c3cccc(F)c3)nc(N3CCOCC3)n2)c1 [compound 6e, 2,4-Bis[(E)-2-[(3-Fluorophenyl)methylidene]hydrazin-1-yl]-6-(morpholin-4-yl)-1,3,5-triazine]
inhibition at 10 µM (MOLT-4): 33.9%
inhibition at 10 µM (T-47D): 10.3%
inhibition at 10 µM (ACHN): 20.9%
inhibition at 10 µM (HCT-15): 52.5%
inhibition at 10 µM (SF-539): 12.6%
inhibition at 10 µM (LOX IMVI): 0.67%
inhibition at 10 µM (EKVX): 10.9%
inhibition at 10 µM (SN 12C): 8.98%
inhibition at 10 µM (COLO 205): 37.4%
inhibition at 10 µM (SK-MEL-28): 10.1%
inhibition at 10 µM (HL-60(TB)): 50.9%
inhibition at 10 µM (SK-MEL-5): 27.9%
inhibition at 10 µM (SK-MEL-2): 2.51%
inhibition at 10 µM (MDA-MB-468): 11.5%
inhibition at 10 µM (UO-31): 30.3%
inhibition at 10 µM (K-562): 35.3%
inhibition at 10 µM (UACC-62): -5.24%
inhibition at 10 µM (SW-620): 34%
inhibition at 10 µM (SNB-75): 18.3%
Mean GI % [1]: 15.60%
inhibition at 10 µM (SF-295): -8.45%
inhibition at 10 µM (CCRF-CEM): 32.8%
inhibition at 10 µM (HT29): 53.5%
inhibition at 10 µM (HCT-116): 24.6%
inhibition at 10 µM (IGROV1): 18.4%
inhibition at 10 µM (A498): 52%
inhibition at 10 µM (NCI/ADR-RES): 8.29%
inhibition at 10 µM (MALME-3M): -44%
inhibition at 10 µM (MDA-MB-231/ATCC): 3.49%
